Data: ChEMBL document CHEMBL1201862, “PubChem BioAssay data set” (2004)
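Exposure lasted 48 hours, with cells grown in 96-well plates and compounds tested at five concentrations. Here, GI50 denotes the concentration required for 50% inhibition of growth.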 The source made the active and inactive calls. Rule as the data show it: active = GI50 up to about 1.1 µM and inactive = higher.

What was measured:
Assay in all cases: inhibition of tumour cell growth, NCI panel, 48 h
[1] = system: K562
[2] = system: ACHN
[3] = system: PC-3
[4] = system: SK-OV-3
[5] = system: DU-145
[6] = system: CCRF-CEM
[7] = system: CAKI-1
[8] = system: MDA-MB-435
[9] = system: HCT-15
[10] = system: UACC-62
[11] = system: SR
[12] = system: M14
[13] = system: SNB-19
[14] = system: Hs-578T
[15] = system: HCT-116
[16] = system: RXF 393
[17] = system: A498
[18] = system: OVCAR-5
[19] = system: NCI-H23
[20] = system: MOLT-4
[21] = system: SF-539
[22] = system: IGROV-1
[23] = system: OVCAR-3
[24] = system: SN12C
[25] = system: Malme-3M
[26] = system: RPMI-8226
[27] = system: HT-29
[28] = system: SK-MEL-5
[29] = system: EKVX
[30] = system: UO-31
[31] = system: LOX IMVI
[32] = system: U-251
[33] = system: MDA-N
[34] = system: SF-268
[35] = system: COLO 205
[36] = system: MDA-MB-231
[37] = system: SF-295
[38] = system: NCI-H522
[39] = system: NCI-H226
[40] = system: NCI/ADR-RES
[41] = system: BT-549
[42] = system: NCI-H460
[43] = system: HOP-92
[44] = system: OVCAR-8
[45] = system: A549
[46] = system: UACC-257
[47] = system: SK-MEL-2
[48] = system: SW-620
[49] = system: 786-0
[50] = system: HL-60
[51] = system: TK-10
[52] = system: HCC 2998
[53] = system: KM12
[54] = system: SK-MEL-28
[55] = system: HOP-62
[56] = system: MCF7
[57] = system: OVCAR-4
[58] = system: T47D
[59] = system: SNB-75

With `O=Cc1cn(CCCCCn2cc(C=O)c3ccccc32)c2ccccc12` the GI50 [1] was > 10 µM (inactive), the GI50 [2] was > 100 µM (inactive) and the GI50 [3] was > 100 µM (inactive). The GI50 [4] was > 100 µM (inactive), the GI50 [5] was > 100 µM (inactive) and the GI50 [6] was > 100 µM (inactive). The GI50 [7] was > 100 µM (inactive), the GI50 [8] was > 100 µM (inactive) and the GI50 [9] was greater than 100 µM. For the same molecule, the GI50 [10] was > 100 µM (inactive), the GI50 [11] was > 100 µM (inactive) and the GI50 [12] was > 100 µM (inactive). The GI50 [13] was > 100 µM (inactive), the GI50 [14] was 25 µM (inactive) and the GI50 [15] was > 100 µM (inactive). For the same molecule, the GI50 [16] was 6.55 µM (inactive), the GI50 [17] was 5.71 µM (inactive) and the GI50 [18] was 1.68 µM (inactive). For the same molecule, the GI50 [19] was > 100 µM (inactive), the GI50 [20] was > 100 µM (inactive) and the GI50 [21] was > 100 µM (inactive). The GI50 [22] was > 100 µM (inactive), the GI50 [23] was > 100 µM (inactive) and the GI50 [24] was > 100 µM (inactive). For the same molecule, the GI50 [25] was > 100 µM (inactive), the GI50 [26] was > 100 µM (inactive) and the GI50 [27] was > 100 µM (inactive). For the same molecule, the GI50 [28] was > 100 µM (inactive), the GI50 [29] was > 100 µM (inactive) and the GI50 [30] was > 100 µM (inactive). The GI50 [31] was 41.5 µM (inactive), the GI50 [32] was 67.9 µM (inactive) and the GI50 [33] was > 100 µM (inactive). The GI50 [34] was 16.7 µM (inactive), the GI50 [35] was > 100 µM (inactive) and the GI50 [36] was 54.6 µM (inactive). The GI50 [37] was 10.4 µM (inactive), the GI50 [38] was 8.18 µM (inactive) and the GI50 [39] was 0.262 µM (active). For the same molecule, the GI50 [40] was > 100 µM (inactive), the GI50 [41] was > 100 µM (inactive) and the GI50 [42] was 0.124 µM (active). For the same molecule, the GI50 [43] was > 100 µM (inactive), the GI50 [44] was > 100 µM (inactive) and the GI50 [45] was > 100 µM (inactive). For the same molecule, the GI50 [46] was > 100 µM (inactive), the GI50 [47] was > 100 µM (inactive) and the GI50 [48] was > 100 µM (inactive). For the same molecule, the GI50 [49] was 71.4 µM (inactive), the GI50 [50] was > 100 µM (inactive) and the GI50 [51] was > 100 µM (inactive).
With `CC1(C(O)c2ccccc2)CN(C(C)(C)C)C(=O)/C1=C\Sc1ccccc1` (centres undefined) the GI50 [1] was 42.1 µM (inactive), the GI50 [2] was 64.1 µM (inactive) and the GI50 [3] was 17.3 µM (inactive). For the same molecule, the GI50 [4] was 44.9 µM (inactive), the GI50 [5] was > 100 µM (inactive) and the GI50 [6] was 23.9 µM (inactive). The GI50 [52] was 94.2 µM (inactive), the GI50 [7] was > 100 µM (inactive) and the GI50 [8] was 30.1 µM (inactive). For the same molecule, the GI50 [9] was 29.2 µM, the GI50 [10] was > 100 µM (inactive) and the GI50 [11] was 30.3 µM (inactive). The GI50 [12] was 51.3 µM (inactive), the GI50 [13] was > 100 µM (inactive) and the GI50 [15] was 25.4 µM (inactive). The GI50 [17] was > 100 µM (inactive), the GI50 [18] was > 100 µM (inactive) and the GI50 [19] was > 100 µM (inactive). The GI50 [20] was 19.2 µM (inactive), the GI50 [21] was > 100 µM (inactive) and the GI50 [22] was 33.3 µM (inactive). For the same molecule, the GI50 [23] was 21.2 µM (inactive), the GI50 [24] was 33.9 µM (inactive) and the GI50 [26] was 9.95 µM (inactive). For the same molecule, the GI50 [27] was 21.1 µM (inactive), the GI50 [28] was 43.7 µM (inactive) and the GI50 [29] was 83 µM (inactive). The GI50 [53] was 31.8 µM (inactive), the GI50 [30] was 29.7 µM (inactive) and the GI50 [31] was 14.1 µM (inactive). For the same molecule, the GI50 [32] was 22.6 µM (inactive), the GI50 [54] was > 100 µM (inactive) and the GI50 [55] was 99.1 µM (inactive). The GI50 [33] was 39.1 µM (inactive), the GI50 [56] was 33.7 µM (inactive) and the GI50 [34] was 1.76 µM (inactive). The GI50 [35] was 20.9 µM (inactive), the GI50 [36] was 53 µM (inactive) and the GI50 [37] was 28.3 µM (inactive). For the same molecule, the GI50 [38] was 2.48 µM (inactive), the GI50 [40] was 35.6 µM (inactive) and the GI50 [57] was 27.4 µM (inactive). For the same molecule, the GI50 [41] was 59.6 µM (inactive), the GI50 [43] was 1.88 µM (inactive) and the GI50 [58] was 13.3 µM (inactive). The GI50 [44] was 28.2 µM (inactive), the GI50 [45] was 20.2 µM (inactive) and the GI50 [46] was 24.9 µM (inactive). The GI50 [47] was 21.3 µM (inactive), the GI50 [48] was 46.8 µM (inactive) and the GI50 [49] was 46 µM (inactive). For the same molecule, the GI50 [50] was 24.7 µM (inactive) and the GI50 [51] was > 100 µM (inactive).
In the case of `N#Cc1c(-c2ccccc2)c(/C=N/c2ccc(F)cc2)c(=O)n2c1[nH]c1ccccc12`, the GI50 [2] is reported as 18.5 µM (inactive), the GI50 [3] is reported as 28.6 µM (inactive) and the GI50 [4] is reported as 36.3 µM (inactive). For the same molecule, the GI50 [59] was 39 µM (inactive), the GI50 [6] was 15.6 µM (inactive) and the GI50 [52] was 21.2 µM (inactive). For the same molecule, the GI50 [7] was 13.6 µM (inactive), the GI50 [8] was 18.4 µM (inactive) and the GI50 [9] was 19.7 µM. For the same molecule, the GI50 [12] was 14.4 µM (inactive), the GI50 [13] was 28.3 µM (inactive) and the GI50 [15] was 14.7 µM (inactive). For the same molecule, the GI50 [16] was 22.5 µM (inactive), the GI50 [17] was 29.4 µM (inactive) and the GI50 [18] was 26.7 µM (inactive). The GI50 [19] was 37 µM (inactive), the GI50 [21] was 30.2 µM (inactive) and the GI50 [22] was 25.4 µM (inactive). For the same molecule, the GI50 [23] was 19.7 µM (inactive), the GI50 [24] was 22.4 µM (inactive) and the GI50 [25] was 23.6 µM (inactive). For the same molecule, the GI50 [26] was 3.06 µM (inactive), the GI50 [28] was 25.6 µM (inactive) and the GI50 [29] was 19.8 µM (inactive). The GI50 [53] was 29.6 µM (inactive), the GI50 [30] was 16.2 µM (inactive) and the GI50 [31] was 23.8 µM (inactive). For the same molecule, the GI50 [32] was 46.7 µM (inactive), the GI50 [54] was 37.1 µM (inactive) and the GI50 [55] was 2.95 µM (inactive). The GI50 [33] was 10.4 µM (inactive), the GI50 [56] was 36.6 µM (inactive) and the GI50 [34] was 29.4 µM (inactive). The GI50 [35] was 29.8 µM (inactive), the GI50 [36] was 51.6 µM (inactive) and the GI50 [37] was 18.5 µM (inactive). The GI50 [38] was 16 µM (inactive), the GI50 [39] was 27.6 µM (inactive) and the GI50 [40] was 21 µM (inactive). For the same molecule, the GI50 [57] was 40.6 µM (inactive), the GI50 [41] was 35.5 µM (inactive) and the GI50 [42] was 17.8 µM (inactive). The GI50 [58] was 27.7 µM (inactive), the GI50 [44] was 34.2 µM (inactive) and the GI50 [45] was 19.7 µM (inactive). For the same molecule, the GI50 [46] was 28.5 µM (inactive), the GI50 [47] was 26.9 µM (inactive) and the GI50 [48] was 29.5 µM (inactive). The GI50 [49] was 24.7 µM (inactive) and the GI50 [51] was 20.8 µM (inactive).
